Measured values as given in ChEMBL document CHEMBL1140693, “4,5-diarylisoxazole Hsp90 chaperone inhibitors: potential therapeutic agents for the treatment of cancer” (J Med Chem, 2008).
pIC50: −log10 of the molar value.

Tests used:
HCT-116 = assay: cells; conditions: Homo sapiens, HCT-116, 24 h
Description: Growth inhibition of human HCT116 cells after 24 hrs by SRB assay

Heat shock protein HSP90 = Heat shock protein HSP90 (Homo sapiens, UniProt P07900+P08238)
Description: Displacement of fluorescent labelled VER-00051001 from human Hsp90-beta by FP assay

DU-145 = assay: Growth inhibition of human DU145 cells by SRB assay; type: functional
[1] = Growth inhibition of human U87MG cells by SRB assay; type: functional, U-87MG ATCC; conditions: U-87 MG
[2] = Growth inhibition of human PC3M cells by SRB assay; type: functional; conditions: PC-3M
SF-268 = assay: Growth inhibition of human SF268 cells by SRB assay; type: functional
SK-MEL-28 = assay: Growth inhibition of human SKMel28 cells by SRB assay; type: functional
[3] = Terminal half life in human HCT116 cells bearing NCr athymic mouse at 4 mg/kg, cassette dosing; type: ADME, organism-based, HCT-116; design: dose 4 mg/kg; conditions: in vivo, read-out: t1/2 lambda z (converted)
[4] = Apparent terminal-phase volume of distribution (Vz/F) in human HCT116 cells bearing NCr athymic mouse at 4 mg/kg, cassette dosing; conditions: in vivo
[5] = Tmax in human HCT116 cells bearing NCr athymic mouse at 4 mg/kg, cassette dosing; type: ADME, organism-based, HCT-116; design: dose 4 mg/kg; conditions: in vivo
[6] = Cmax in human HCT116 cells bearing NCr athymic mouse at 4 mg/kg, cassette dosing; type: ADME, organism-based, HCT-116; design: dose 4 mg/kg; conditions: in vivo
[7] = AUClast in human HCT116 cells bearing NCr athymic mouse at 4 mg/kg, cassette dosing; type: ADME, organism-based, HCT-116; design: time 0 - last, dose 4 mg/kg; conditions: in vivo
[8] = Apparent clearance in human HCT116 cells bearing NCr athymic mouse at 4 mg/kg, cassette dosing; type: ADME, organism-based, HCT-116; design: dose 4 mg/kg; conditions: in vivo

Row | SMILES | GI50 (HCT-116) [µM] | pIC50 (Heat shock protein HSP90) | IC50 (Heat shock protein HSP90) [µM] | further results
1 | Oc1cc(O)c(-c2n[nH]cc2N2CCN(Cc3ccccc3)CC2)cc1Cl | 6.5 | 6.22 |  | 
2 | CCNC(=O)c1noc(-c2cc(C(C)C)c(O)cc2O)c1-c1ccc(CN(CC)CC)cc1 | 0.006 |  | 0.006 | 
3 | CCNC(=O)c1noc(-c2cc(CC)c(O)cc2OC)c1-c1ccc(CN2CCOCC2)cc1 | 2.15 |  | 0.54 | 
4 | CCNC(=O)c1noc(-c2cc(CC)c(OC)cc2OC)c1-c1ccc(CN2CCOCC2)cc1 | 32 |  | 1.56 | 
5 | CCNC(=O)c1[nH]nc(-c2cc(Cl)c(O)cc2O)c1-c1ccc(CN(CC)CC)cc1 | 0.315 |  | 0.146 | 
6 | CCNC(=O)c1[nH]nc(-c2cc(Cl)c(O)cc2O)c1-c1ccc(CNC(=O)C2CCCN(C)C2)cc1 (stereo not drawn) | 3.47 |  | 0.115 | 
7 | CCNC(=O)c1[nH]nc(-c2cc(Cl)c(O)cc2O)c1-c1ccc(CN2CCOCC2)cc1 | 0.29 |  | 0.037 | 
8 | CCNC(=O)c1[nH]nc(-c2cc(Cl)c(O)cc2O)c1-c1cccc(CN2CCOCC2)c1 | 2.69 |  | 0.222 | 
9 | CCNC(=O)c1[nH]nc(-c2cc(Cl)c(O)cc2O)c1-c1cccc(CNCCN2CCCCC2)c1 | 25.1 |  | 1 | 
10 | CCNC(=O)c1[nH]nc(-c2cc(Cl)c(O)cc2O)c1-c1cccc(CNCCN2CCOCC2)c1 | 12.5 |  | 0.431 | 
11 | CCNC(=O)c1[nH]nc(-c2cc(Cl)c(O)cc2O)c1-c1cccc(CN2CCC(CO)CC2)c1 | > 80 |  | 2.63 | 
12 | CCNC(=O)c1[nH]nc(-c2cc(Cl)c(O)cc2O)c1-c1cccc(CN2CCN(C(C)=O)CC2)c1 | 32.7 |  | 1.29 | 
13 | CCNC(=O)c1noc(-c2cc(C(C)(C)C)c(O)cc2O)c1-c1ccc(CN2CCCCC2)cc1 | 0.065 |  | 0.011 | 
14 | CCNC(=O)c1noc(-c2cc(Cl)c(O)cc2O)c1-c1ccc(CN2CCS(=O)(=O)CC2)cc1 | 0.47 |  | 0.021 | 
15 | CCNC(=O)c1noc(-c2cc(Cl)c(O)cc2O)c1-c1ccc(CNCCS(C)(=O)=O)cc1 | 1.98 |  | 0.014 | 
16 | CCNC(=O)c1noc(-c2cc(Cl)c(O)cc2O)c1-c1ccc(CN(CC)CC)cc1 | 0.056 |  | 0.064 | 
17 | CCNC(=O)c1noc(-c2cc(Cl)c(O)cc2O)c1-c1ccc(CN2CCCCC2)cc1 | 0.061 |  | 0.019 | 
18 | CCNC(=O)c1noc(-c2cc(Cl)c(O)cc2O)c1-c1ccc(CN2CCC(O)CC2)cc1 | 1.29 |  | 0.028 | 
19 | CCNC(=O)c1noc(-c2cc(Cl)c(O)cc2O)c1-c1ccc(CN(C)C)cc1 | 0.069 |  | 0.018 | 
20 | CCNC(=O)c1noc(-c2cc(Cl)c(O)cc2O)c1-c1cccc(N2CCOCC2)c1 | 0.634 |  | 0.127 | 
21 | CCNC(=O)c1noc(-c2cc(CCc3ccccc3)c(O)cc2O)c1-c1ccc(CN2CCOCC2)cc1 | 0.029 |  | 0.032 | 
22 | CCNC(=O)c1noc(-c2cc(CC)c(O)cc2O)c1-c1ccc(CN(CC)CC)cc1 | 0.041 |  | 0.013 | 
23 | CC(=O)c1ccc(CNC(=O)c2c[nH]nc2-c2cc(Cl)c(O)cc2O)cc1 | 11.6 |  | 0.258 | 
24 | CCNC(=O)c1noc(-c2cc(CCc3ccc(F)cc3)c(O)cc2O)c1-c1ccc(CN2CCOCC2)cc1 | 0.039 |  | 0.02 | 
25 | CCNC(=O)c1noc(-c2cc(CCc3cccc(F)c3)c(O)cc2O)c1-c1ccc(CN2CCOCC2)cc1 | 0.058 |  | 0.026 | 

Row | SMILES | GI50 (HCT-116) [µM] | pIC50 (Heat shock protein HSP90) | IC50 (Heat shock protein HSP90) [µM] | further results
26 | CCNC(=O)c1noc(-c2cc(-c3ccccc3)c(O)cc2O)c1-c1ccc(CN2CCOCC2)cc1 | 0.152 |  | 0.022 | 
27 | CCNC(=O)c1noc(-c2cc(-c3ccccc3C)c(O)cc2O)c1-c1ccc(CN2CCCCC2)cc1 | 0.114 |  | 0.014 | 
28 | CCNC(=O)c1noc(-c2cc(-c3ccc(F)cc3)c(O)cc2O)c1-c1ccc(CN2CCCCC2)cc1 | 0.035 |  | 0.036 | 
29 | CCNC(=O)c1n[nH]c(-c2cc(Cl)c(O)cc2O)c1-c1ccc(OC)cc1 |  |  |  | GI50 (DU-145): 1.2 µM; GI50 [1]: 1.2 µM; GI50 [2]: 2.2 µM; GI50 (SF-268): 0.32 µM; GI50 (SK-MEL-28): 0.48 µM
30 | CCNC(=O)c1noc(-c2cc(Cl)c(O)cc2O)c1-c1ccc(CN2CCOCC2)cc1 | 0.083 |  |  | 
31 | CCNC(=O)c1[nH]nc(-c2cc(Cl)c(O)cc2O)c1-c1ccc(CN2CCS(=O)(=O)CC2)cc1 | 0.826 |  | 0.027 | 
32 | CCNC(=O)c1[nH]nc(-c2cc(Cl)c(O)cc2O)c1-c1ccc(CN(CCO)CCO)cc1 | 7.8 |  | 0.142 | 
33 | CCc1cc(-c2[nH]nc(C)c2-c2ccc3c(c2)OCCO3)c(O)cc1O | 5.8 |  |  | 
34 | CCNC(=O)c1[nH]nc(-c2cc(Cl)c(O)cc2O)c1-c1cccc(CNCCOC)c1 | 12.9 |  | 0.728 | 
35 | CCNC(=O)c1noc(-c2cc(C(C)(C)C)c(O)cc2O)c1-c1ccc(CN2CCOCC2)cc1 | 0.07 |  | 0.008 | half-life [3]: 5 h; Vz/F [4]: 0.809 L; Tmax [5]: 1 h; Cmax [6]: 203 nM; AUC(0-t) [7]: 0.751 µM·h; CL/F [8]: 1.85 mL/min
36 | CCNC(=O)c1[nH]nc(-c2cc(Cl)c(O)cc2O)c1-c1cccc(CN2CCC[C@H]2CO)c1 | 11.4 |  | 1.66 | 
37 | CCNC(=O)c1noc(-c2cc(-c3ccccc3F)c(O)cc2O)c1-c1ccc(CN2CCOCC2)cc1 | 0.087 |  | 0.039 | 
38 | CCNC(=O)c1noc(-c2cc(Cl)c(O)cc2O)c1-c1cccc(N2CCN(C)CC2)c1 | 2.78 |  | 0.343 | 
39 | CCNC(=O)c1noc(-c2cc(CC)c(O)cc2O)c1-c1ccc(CN2CCOCC2)cc1 | 0.025 |  | 0.029 | 
40 | CCNC(=O)c1noc(-c2cc(-c3ccccc3)c(O)cc2O)c1-c1ccc(CN2CCCCC2)cc1 | 0.086 |  | 0.014 | half-life [3]: 7.3 h; Vz/F [4]: 0.652 L; Tmax [5]: 1 h; Cmax [6]: 237 nM; AUC(0-t) [7]: 0.995 µM·h; CL/F [8]: 1.03 mL/min
41 | CCNC(=O)c1noc(-c2cc(-c3ccccc3)c(O)cc2O)c1-c1ccc(CN(CC)CC)cc1 | 0.091 |  | 0.074 | half-life [3]: 14.6 h; Vz/F [4]: 0.736 L; Tmax [5]: 4 h; Cmax [6]: 252 nM; AUC(0-t) [7]: 1.25 µM·h; CL/F [8]: 0.583 mL/min
42 | CCNC(=O)c1noc(-c2cc(Cl)c(O)cc2O)c1-c1ccc(CN2CCN(C)CC2)cc1 | 0.125 |  | 0.039 | 
43 | CCNC(=O)c1[nH]nc(-c2cc(Cl)c(O)cc2O)c1-c1ccc(CNCCS(C)(=O)=O)cc1 | 2.16 |  | 0.035 | 
44 | CCNC(=O)c1[nH]nc(-c2cc(Cl)c(O)cc2O)c1-c1ccc(CNC(=O)C[C@@H]2CCCN2)cc1 | 0.275 |  | 0.057 | 
45 | CCNC(=O)c1[nH]nc(-c2cc(Cl)c(O)cc2O)c1-c1cccc(CNCc2ccccc2C(F)(F)F)c1 | 3.11 |  | 0.231 | 
46 | CCNC(=O)c1[nH]nc(-c2cc(Cl)c(O)cc2O)c1-c1cccc(CN(C)CCO)c1 | 9.24 |  | 0.914 | 
47 | CCNC(=O)c1noc(-c2cc(Cl)c(O)cc2O)c1-c1ccc(CN2CCCC2)cc1 | 0.118 |  | 0.039 | 
48 | CCNC(=O)c1noc(-c2cc(CC)c(OC)cc2O)c1-c1ccc(CN2CCOCC2)cc1 | 0.08 |  | 0.015 | 
49 | CCNC(=O)c1noc(-c2cc(CCc3ccc(F)cc3)c(O)cc2O)c1-c1ccc(CN2CCCCC2)cc1 | 0.029 |  | 0.026 | 
50 | C=CCNC1=C2C[C@@H](C)C[C@H](OC)[C@H](O)[C@@H](C)/C=C(\C)[C@H](OC(N)=O)[C@@H](OC)/C=C\C=C(/C)C(=O)NC(=CC1=O)C2=O [TANESPIMYCIN] | 0.16 |  |  | 
